Experimental data reported in patent publication US9828360B2 (Array BioPharma Inc., priority 2012, dated 2017).

Key:
Assay in all cases: KinaseProfiler off-target kinase profiling
Type in all cases: biochemical
Details in all cases: 10 μM, ATP near Km
MST1 = biological target: T1, MST1 (Homo sapiens, UniProt Q13043)
T1 construct: purchased Millipore, Inc. (KinaseProfiler service)
Method in brief: (§1)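 POC (mean, n=2) at 10 μM inhibitor; ATP near Km of each enzyme.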

Lck = biological target: T2, Lck (Homo sapiens, UniProt P06239)
T2 construct: purchased Millipore, Inc. (KinaseProfiler service)
Method in brief: as §1

TEC Activated = biological target: T3, TEC Activated (Homo sapiens, UniProt P42680)
T3 construct: purchased Millipore, Inc. (KinaseProfiler service)
Method in brief: as §1

ALK = biological target: T4, ALK (Homo sapiens, UniProt Q9UM73)
T4 construct: purchased Millipore, Inc. (KinaseProfiler service)
Method in brief: as §1

Mer = biological target: T5, Mer (Homo sapiens, UniProt Q12866)
T5 construct: purchased Millipore, Inc. (KinaseProfiler service)
Method in brief: as §1

EphB2 = biological target: T6, EphB2 (Homo sapiens, UniProt P29323)
T6 construct: purchased Millipore, Inc. (KinaseProfiler service)
Method in brief: as §1

CAMK1d = biological target: T7, CAMK1d (Homo sapiens, UniProt Q8IU85)
T7 construct: purchased Millipore, Inc. (KinaseProfiler service)
T7 sequence (Q8IU85 whole entry): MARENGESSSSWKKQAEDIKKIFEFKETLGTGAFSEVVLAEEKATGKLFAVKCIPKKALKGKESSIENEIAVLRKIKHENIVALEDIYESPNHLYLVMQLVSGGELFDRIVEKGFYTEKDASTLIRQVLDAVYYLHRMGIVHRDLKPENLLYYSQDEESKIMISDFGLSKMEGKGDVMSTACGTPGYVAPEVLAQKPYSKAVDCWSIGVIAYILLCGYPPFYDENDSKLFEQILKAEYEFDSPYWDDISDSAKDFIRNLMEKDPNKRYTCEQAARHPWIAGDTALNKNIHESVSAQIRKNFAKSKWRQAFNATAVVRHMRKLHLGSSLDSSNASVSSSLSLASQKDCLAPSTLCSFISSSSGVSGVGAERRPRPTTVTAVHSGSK
Method in brief: as §1

Plk2 = biological target: T8, Plk2 (Homo sapiens, UniProt Q9NYY3)
T8 construct: purchased Millipore, Inc. (KinaseProfiler service)
Method in brief: as §1

Abl2 = biological target: T9, Abl2 (Homo sapiens, UniProt P42684)
T9 construct: purchased Millipore, Inc. (KinaseProfiler service)
Method in brief: as §1

BLK_m = biological target: T10, BLK_m (Mus musculus, UniProt P16277)
T10 construct: purchased Millipore, Inc. (KinaseProfiler service)
Method in brief: as §1

STK33 = biological target: T11, STK33 (Homo sapiens, UniProt Q9BYT3)
T11 construct: purchased Millipore, Inc. (KinaseProfiler service)
Method in brief: as §1

AURKA = biological target: T12, AURKA (Homo sapiens, UniProt O14965)
T12 construct: purchased Millipore, Inc. (KinaseProfiler service)
T12 sequence (O14965 whole entry): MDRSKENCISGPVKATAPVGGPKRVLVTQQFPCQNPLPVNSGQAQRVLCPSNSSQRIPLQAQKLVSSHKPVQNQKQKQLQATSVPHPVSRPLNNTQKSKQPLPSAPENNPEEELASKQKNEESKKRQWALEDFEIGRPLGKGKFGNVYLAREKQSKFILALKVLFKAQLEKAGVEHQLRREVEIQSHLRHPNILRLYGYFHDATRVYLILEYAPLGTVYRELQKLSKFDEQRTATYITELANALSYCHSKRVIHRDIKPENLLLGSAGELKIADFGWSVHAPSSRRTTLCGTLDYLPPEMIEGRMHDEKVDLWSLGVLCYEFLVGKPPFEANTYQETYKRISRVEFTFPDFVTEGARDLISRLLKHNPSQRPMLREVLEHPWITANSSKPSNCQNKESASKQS
Method in brief: as §1

IR Activated = biological target: T13, IR Activated (Homo sapiens, UniProt P06213)
T13 construct: purchased Millipore, Inc. (KinaseProfiler service)
Method in brief: as §1

HIPK2 = biological target: T14, HIPK2 (Homo sapiens, UniProt Q9H2X6)
T14 construct: purchased Millipore, Inc. (KinaseProfiler service)
Method in brief: as §1

MSK1 = biological target: T15, MSK1 (Homo sapiens, UniProt O75582)
T15 construct: purchased Millipore, Inc. (KinaseProfiler service)
Method in brief: as §1

MYLK = biological target: T16, MYLK (Homo sapiens, UniProt Q15746)
T16 construct: purchased Millipore, Inc. (KinaseProfiler service)
Method in brief: as §1

MARK2 = biological target: T17, MARK2 (Homo sapiens, UniProt Q7KZI7)
T17 construct: purchased Millipore, Inc. (KinaseProfiler service)
Method in brief: as §1

PKCbetaI = biological target: T18, PKCbetaI (Homo sapiens, UniProt P05771)
T18 construct: purchased Millipore, Inc. (KinaseProfiler service)
T18 sequence (P05771 whole entry): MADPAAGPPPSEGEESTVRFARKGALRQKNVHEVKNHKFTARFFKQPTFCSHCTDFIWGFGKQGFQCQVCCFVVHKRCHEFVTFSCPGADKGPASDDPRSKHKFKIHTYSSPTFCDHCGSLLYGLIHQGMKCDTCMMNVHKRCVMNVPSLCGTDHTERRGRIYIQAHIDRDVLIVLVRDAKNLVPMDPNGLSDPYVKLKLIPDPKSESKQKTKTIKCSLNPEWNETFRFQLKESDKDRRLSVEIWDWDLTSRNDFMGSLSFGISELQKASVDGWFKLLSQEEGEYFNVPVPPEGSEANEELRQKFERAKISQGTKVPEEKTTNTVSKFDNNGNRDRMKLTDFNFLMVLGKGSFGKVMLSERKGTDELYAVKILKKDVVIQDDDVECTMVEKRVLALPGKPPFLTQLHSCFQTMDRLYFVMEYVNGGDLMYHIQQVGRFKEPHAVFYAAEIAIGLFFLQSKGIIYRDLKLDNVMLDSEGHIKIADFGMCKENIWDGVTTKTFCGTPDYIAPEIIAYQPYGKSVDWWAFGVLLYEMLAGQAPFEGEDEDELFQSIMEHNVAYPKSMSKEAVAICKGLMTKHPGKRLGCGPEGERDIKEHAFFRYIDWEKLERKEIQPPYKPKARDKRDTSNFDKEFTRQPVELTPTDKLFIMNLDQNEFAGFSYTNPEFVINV
Method in brief: as §1

CSK = biological target: T19, CSK (Homo sapiens, UniProt P41240)
T19 construct: purchased Millipore, Inc. (KinaseProfiler service)
T19 sequence (P41240 whole entry): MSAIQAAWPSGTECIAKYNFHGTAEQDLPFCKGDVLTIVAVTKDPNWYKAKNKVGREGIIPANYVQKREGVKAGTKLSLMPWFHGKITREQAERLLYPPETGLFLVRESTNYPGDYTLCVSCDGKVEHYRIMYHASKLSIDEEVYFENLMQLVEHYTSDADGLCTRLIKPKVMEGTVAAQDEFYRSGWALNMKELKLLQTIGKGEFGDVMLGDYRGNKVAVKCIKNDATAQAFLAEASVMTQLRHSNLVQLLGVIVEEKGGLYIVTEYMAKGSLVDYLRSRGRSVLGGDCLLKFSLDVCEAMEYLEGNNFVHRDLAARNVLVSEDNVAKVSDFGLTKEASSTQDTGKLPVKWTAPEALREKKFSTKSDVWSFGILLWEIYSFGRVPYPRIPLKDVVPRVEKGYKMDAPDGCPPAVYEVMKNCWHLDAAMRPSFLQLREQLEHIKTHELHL
Method in brief: as §1

NEK7 = biological target: T20, NEK7 (Homo sapiens, UniProt Q8TDX7)
T20 construct: purchased Millipore, Inc. (KinaseProfiler service)
Method in brief: as §1

PKCiota = biological target: T21, PKCiota (Homo sapiens, UniProt P41743)
T21 construct: purchased Millipore, Inc. (KinaseProfiler service)
Method in brief: as §1

CDK5/p35 = biological target: T22, CDK5/p35 (Homo sapiens, UniProt Q00535)
T22 construct: purchased Millipore, Inc. (KinaseProfiler service)
Method in brief: as §1

Abl-P = biological target: T23, Abl-P (Homo sapiens, UniProt P00519)
T23 construct: purchased Millipore, Inc. (KinaseProfiler service)
Method in brief: as §1

ERK1 = biological target: T24, ERK1 (Homo sapiens, UniProt P27361)
T24 construct: purchased Millipore, Inc. (KinaseProfiler service)
Method in brief: as §1

MuSK = biological target: T25, MuSK (Homo sapiens, UniProt O15146)
T25 construct: purchased Millipore, Inc. (KinaseProfiler service)
Method in brief: as §1

ITK = biological target: T26, ITK (Homo sapiens, UniProt Q08881)
T26 construct: purchased Millipore, Inc. (KinaseProfiler service)
T26 sequence (Q08881 whole entry): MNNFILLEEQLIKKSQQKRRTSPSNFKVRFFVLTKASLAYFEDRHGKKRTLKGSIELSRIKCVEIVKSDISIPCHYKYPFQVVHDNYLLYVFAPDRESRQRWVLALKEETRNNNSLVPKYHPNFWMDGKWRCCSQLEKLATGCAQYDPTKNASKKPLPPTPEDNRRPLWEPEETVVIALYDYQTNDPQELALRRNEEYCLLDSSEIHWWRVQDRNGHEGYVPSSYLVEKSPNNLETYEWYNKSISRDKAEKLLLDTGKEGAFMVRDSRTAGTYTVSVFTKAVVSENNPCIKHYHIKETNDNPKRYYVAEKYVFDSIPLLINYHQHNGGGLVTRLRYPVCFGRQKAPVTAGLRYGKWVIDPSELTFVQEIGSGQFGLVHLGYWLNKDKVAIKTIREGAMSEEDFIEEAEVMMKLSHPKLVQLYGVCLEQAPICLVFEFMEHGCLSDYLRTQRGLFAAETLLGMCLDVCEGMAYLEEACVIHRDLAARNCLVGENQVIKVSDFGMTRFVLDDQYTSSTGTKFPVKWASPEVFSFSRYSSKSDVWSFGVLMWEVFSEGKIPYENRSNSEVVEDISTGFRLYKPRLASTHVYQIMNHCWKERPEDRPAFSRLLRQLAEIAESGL
Method in brief: as §1

MSSK1 = biological target: T27, MSSK1 (Homo sapiens, UniProt Q9UPE1)
T27 construct: purchased Millipore, Inc. (KinaseProfiler service)
Method in brief: as §1

MINK = biological target: T28, MINK (Homo sapiens, UniProt Q8N4C8)
T28 construct: purchased Millipore, Inc. (KinaseProfiler service)
Method in brief: as §1

AKT1 = biological target: T29, AKT1 (Homo sapiens, UniProt P31749)
T29 construct: purchased Millipore, Inc. (KinaseProfiler service)
Method in brief: as §1

PKCtheta = biological target: T30, PKCtheta (Homo sapiens, UniProt Q04759)
T30 construct: purchased Millipore, Inc. (KinaseProfiler service)
Method in brief: as §1

p38beta = biological target: T31, p38beta (Homo sapiens, UniProt Q15759)
T31 construct: purchased Millipore, Inc. (KinaseProfiler service)
Method in brief: as §1

FAK = biological target: T32, FAK (Homo sapiens, UniProt Q05397)
T32 construct: purchased Millipore, Inc. (KinaseProfiler service)
Method in brief: as §1

CAMK2d = biological target: T33, CAMK2d (Homo sapiens, UniProt Q13557)
T33 construct: purchased Millipore, Inc. (KinaseProfiler service)
Method in brief: as §1

Tie2 = biological target: T34, Tie2 (Homo sapiens, UniProt Q02763)
T34 construct: purchased Millipore, Inc. (KinaseProfiler service)
Method in brief: as §1

CHK1 = biological target: T35, CHK1 (Homo sapiens, UniProt O14757)
T35 construct: purchased Millipore, Inc. (KinaseProfiler service)
Method in brief: as §1

p70S6K = biological target: T36, p70S6K (Homo sapiens, UniProt P23443)
T36 construct: purchased Millipore, Inc. (KinaseProfiler service)
Method in brief: as §1

KDR = biological target: T37, KDR (Homo sapiens, UniProt P35968)
T37 construct: purchased Millipore, Inc. (KinaseProfiler service)
Method in brief: as §1

PDGFRbeta = biological target: T38, PDGFRbeta (Homo sapiens, UniProt P09619)
T38 construct: purchased Millipore, Inc. (KinaseProfiler service)
Method in brief: as §1

IRR = biological target: T39, IRR (Homo sapiens, UniProt P14616)
T39 construct: purchased Millipore, Inc. (KinaseProfiler service)
T39 sequence (P14616 27-1297): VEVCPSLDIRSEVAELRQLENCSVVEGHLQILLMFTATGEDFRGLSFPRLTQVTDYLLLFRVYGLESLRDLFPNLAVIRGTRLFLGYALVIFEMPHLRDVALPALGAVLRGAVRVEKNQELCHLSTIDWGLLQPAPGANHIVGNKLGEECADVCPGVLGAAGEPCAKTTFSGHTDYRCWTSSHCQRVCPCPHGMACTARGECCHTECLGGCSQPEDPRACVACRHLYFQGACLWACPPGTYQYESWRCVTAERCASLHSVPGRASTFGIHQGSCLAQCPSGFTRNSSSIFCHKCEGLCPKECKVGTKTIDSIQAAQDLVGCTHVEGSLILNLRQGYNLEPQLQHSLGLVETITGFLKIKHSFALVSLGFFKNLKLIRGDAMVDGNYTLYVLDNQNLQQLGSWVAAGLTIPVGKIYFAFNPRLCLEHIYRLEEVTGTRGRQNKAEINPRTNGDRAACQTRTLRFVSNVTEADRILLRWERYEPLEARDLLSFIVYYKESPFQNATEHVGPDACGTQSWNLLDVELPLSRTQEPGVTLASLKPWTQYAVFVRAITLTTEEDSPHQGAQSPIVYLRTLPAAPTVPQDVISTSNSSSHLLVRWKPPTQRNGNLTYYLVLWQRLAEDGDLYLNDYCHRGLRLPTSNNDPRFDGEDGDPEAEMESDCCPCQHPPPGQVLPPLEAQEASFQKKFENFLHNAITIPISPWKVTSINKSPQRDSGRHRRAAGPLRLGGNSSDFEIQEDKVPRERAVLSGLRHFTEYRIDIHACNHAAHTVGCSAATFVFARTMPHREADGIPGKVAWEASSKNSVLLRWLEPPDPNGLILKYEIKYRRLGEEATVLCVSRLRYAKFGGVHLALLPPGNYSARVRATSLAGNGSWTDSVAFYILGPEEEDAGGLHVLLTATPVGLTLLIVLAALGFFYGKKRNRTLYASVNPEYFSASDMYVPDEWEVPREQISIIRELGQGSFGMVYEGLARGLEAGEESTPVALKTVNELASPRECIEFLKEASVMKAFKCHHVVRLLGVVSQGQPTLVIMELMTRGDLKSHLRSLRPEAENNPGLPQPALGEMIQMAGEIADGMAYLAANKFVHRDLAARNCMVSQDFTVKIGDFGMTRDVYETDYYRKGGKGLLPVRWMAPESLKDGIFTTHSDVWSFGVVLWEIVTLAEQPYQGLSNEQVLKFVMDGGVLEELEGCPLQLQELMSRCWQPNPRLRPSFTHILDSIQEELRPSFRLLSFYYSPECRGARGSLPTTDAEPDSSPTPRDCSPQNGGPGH
Method in brief: as §1

JAK3 = biological target: T40, JAK3 (Homo sapiens, UniProt P52333)
T40 construct: purchased Millipore, Inc. (KinaseProfiler service)
Method in brief: as §1

PAK6 = biological target: T41, PAK6 (Homo sapiens, UniProt Q9NQU5)
T41 construct: purchased Millipore, Inc. (KinaseProfiler service)
T41 sequence (Q9NQU5 whole entry): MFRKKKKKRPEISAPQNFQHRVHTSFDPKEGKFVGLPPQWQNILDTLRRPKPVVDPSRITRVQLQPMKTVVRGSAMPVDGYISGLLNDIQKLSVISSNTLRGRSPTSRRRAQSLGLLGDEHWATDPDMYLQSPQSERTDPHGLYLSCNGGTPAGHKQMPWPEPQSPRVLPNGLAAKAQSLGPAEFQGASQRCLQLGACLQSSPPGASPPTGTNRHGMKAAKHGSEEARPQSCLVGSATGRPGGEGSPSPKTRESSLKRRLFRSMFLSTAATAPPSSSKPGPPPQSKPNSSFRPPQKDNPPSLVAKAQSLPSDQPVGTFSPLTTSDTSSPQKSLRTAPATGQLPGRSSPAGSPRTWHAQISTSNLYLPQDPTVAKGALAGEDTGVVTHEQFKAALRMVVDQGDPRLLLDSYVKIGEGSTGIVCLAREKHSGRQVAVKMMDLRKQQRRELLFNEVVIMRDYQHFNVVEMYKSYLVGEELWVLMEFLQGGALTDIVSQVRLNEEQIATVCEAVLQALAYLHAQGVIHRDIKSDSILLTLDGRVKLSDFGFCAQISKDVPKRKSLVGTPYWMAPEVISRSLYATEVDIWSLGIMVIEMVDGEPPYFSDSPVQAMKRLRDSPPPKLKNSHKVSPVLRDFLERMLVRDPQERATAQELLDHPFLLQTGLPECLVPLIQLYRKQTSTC
Method in brief: as §1

T1 sequence (Q13043 whole entry): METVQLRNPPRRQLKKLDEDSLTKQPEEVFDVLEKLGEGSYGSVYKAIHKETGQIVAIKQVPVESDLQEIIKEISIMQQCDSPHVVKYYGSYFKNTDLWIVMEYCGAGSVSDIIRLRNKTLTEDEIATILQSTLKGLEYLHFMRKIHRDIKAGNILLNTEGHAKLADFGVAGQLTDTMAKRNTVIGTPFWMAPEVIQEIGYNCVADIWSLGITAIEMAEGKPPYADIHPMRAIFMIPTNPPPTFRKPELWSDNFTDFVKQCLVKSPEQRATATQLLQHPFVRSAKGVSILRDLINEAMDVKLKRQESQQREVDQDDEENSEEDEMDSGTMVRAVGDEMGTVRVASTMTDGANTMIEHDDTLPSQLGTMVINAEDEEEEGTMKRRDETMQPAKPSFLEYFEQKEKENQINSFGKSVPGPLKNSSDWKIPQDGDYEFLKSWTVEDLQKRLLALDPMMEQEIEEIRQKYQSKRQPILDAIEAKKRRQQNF

SMILES: COCCN1C[C@@H](NC(=O)Nc2sc(C(C)C)nc2-c2ccccc2)[C@H](c2ccccc2)C1 [Example 48, 1-(2-isopropyl-4-phenylthiazol-5-yl)-3-((3S,4R)-1-(2-methoxyethyl)-4-phenylpyrrolidin-3-yl)urea]
- Avg POC (MST1): 93.5% of control
- Avg POC (Lck): 102% of control
- Avg POC (TEC Activated): 94% of control
- Avg POC (ALK): 125% of control
- Avg POC (Mer): 126.5% of control
- Avg POC (EphB2): 99.5% of control
- Avg POC (CAMK1d): 105% of control
- Avg POC (Plk2): 99.5% of control
- Avg POC (Abl2): 124.5% of control
- Avg POC (BLK_m): 107% of control
- Avg POC (STK33): 110% of control
- Avg POC (AURKA): 133% of control
- Avg POC (IR Activated): 111.5% of control
- Avg POC (HIPK2): 103% of control
- Avg POC (MSK1): 121.5% of control
- Avg POC (MYLK): 107% of control
- Avg POC (MARK2): 93% of control
- Avg POC (PKCbetaI): 97% of control
- Avg POC (CSK): 108% of control
- Avg POC (NEK7): 107% of control
- Avg POC (PKCiota): 120% of control
- Avg POC (CDK5/p35): 109.5% of control
- Avg POC (Abl-P): 147.5% of control
- Avg POC (ERK1): 100% of control
- Avg POC (MuSK): 107.5% of control
- Avg POC (ITK): 170.5% of control
- Avg POC (MSSK1): 94% of control
- Avg POC (MINK): 117% of control
- Avg POC (AKT1): 117% of control
- Avg POC (PKCtheta): 108.5% of control
- Avg POC (p38beta): 115% of control
- Avg POC (FAK): 107.5% of control
- Avg POC (CAMK2d): 99% of control
- Avg POC (Tie2): 96% of control
- Avg POC (CHK1): 110% of control
- Avg POC (p70S6K): 107.5% of control
- Avg POC (KDR): 104% of control
- Avg POC (PDGFRbeta): 103.5% of control
- Avg POC (IRR): 110.5% of control
- Avg POC (JAK3): 102.5% of control
- Avg POC (PAK6): 94% of control
